The structures appear in SMILES notation.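 Method: 48-hour compound exposure of cells in 96-well plates, five concentrations, linear interpolation of endpoints. TGI: total growth inhibition.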

TGI data for 42 compounds are collected here from PubChem BioAssay (NCI).

For one experiment, the system named is BT-549 breast. In words: growth of human tumour cells (NCI), 48 h.
The compound `CCCCCCCCCCCCCCCCCCNC(=O)C(N)Cc1ccc(OCc2ccccc2)cn1` (stereo not given) displayed a TGI of 57.3 µM.
Consider `Cc1ccc2c(c1)[nH]c(=S)n2/C=C1\C(=O)Oc2ccccc2C1=O`, for which the TGI is more than 100 µM.
Still for that read-out and setting: the value for `CC(C)Cn1cnc2c(NCC(C)O)nc3ccccc3c21` (stereo not given) was more than 100 µM.
On the same count and under the same terms, the same measure for `OC1(c2cccs2)c2cccc(Cl)c2C(O)(c2cccs2)c2c(Cl)cccc21` (stereo not given): more than 100 µM; for `CN(C)Nc1cc(=O)[nH]c(=O)[nH]1`: more than 100 µM.
Same read-out and setting: the value for `O=[N+]([O-])/C(C(Cl)=C(Cl)Cl)=C(\N1CCOCC1)n1nnc2ccccc21` was 33.1 µM.
The compound `C=CCNC(=O)NC(=O)CSC1=NNC2(C(=O)N1)c1ccccc1-c1ccccc12` registered a TGI of more than 10 µM.
The same measure, in the same setting: the value for `O=c1c2c(oc3ccccc13)-c1ccccc1OC2` was more than 100 µM; that for `C=CCOc1cccc(C2(O)c3ccccc3C3=NCCCN32)c1` (stereo not given) was more than 100 µM.
Take `O=C1CCCCC/C1=C\c1cccc(Cl)c1`: the TGI was more than 100 µM.
On the same count and under the same terms, the value for `COC(=O)C1(C(=O)OC)Cc2ccc(OC)cc2C2=C1C(=O)c1ccccc1C2=O` was 37.3 µM; that for `CCc1c2c([nH]c(=S)c1C#N)CCC2` was more than 100 µM; that for `O=C1/C(=C/c2cccc(F)c2)CCCc2ccccc21` was 34.1 µM.
Same read-out and setting: the same measure for `C=CCN1C(=O)/C(=C/c2ccc(OC)cc2)N=C1SC/C=C/C`: more than 100 µM.
The same measure, in the same setting: the same measure for `Clc1ccc(NCc2nnc(CCCCCCCCc3nnc(CNc4ccc(Cl)cc4)o3)o2)cc1`: more than 100 µM; for `O=C1C(Cl)C2(CC(/C=C/c3ccccc3Cl)=NN2c2cccc(S(=O)(=O)O)c2)N1c1nc2ccccc2s1` (stereo not given): more than 100 µM.
The compound `Cc1nc2ccccc2n1COC(Cn1ccnc1)c1ccc(Cl)cc1Cl` (stereo not given) gave a TGI of 91.2 µM.
Still for that read-out and setting: the same measure for `Cn1c2ccccc2c2c(-c3ccccc3)cc3c(c21)C(=O)C=CC3=O`: 3.04 µM; for `Nc1ncnn2c(C3OC(CO)C(O)C3O)ccc12` (stereo not given): 0.789 µM.
Same read-out and setting: the same measure for `COCCOC(=O)c1c(C)n([O-])c2cc(Cl)c(Cl)cc2[n+]1=O`: 67.1 µM; for `O=C(CC(=O)N(C(=O)/C=C\c1ccccc1)c1ccc(Cl)cc1)N1N=C(c2ccccc2)C(N=Nc2cccc([N+](=O)[O-])c2)C1=O` (stereo not given): 46.9 µM.
On the same count and under the same terms, the same measure for `COc1ccc2[nH]cc(CCNC(=O)[C@H](Cc3ccccc3)NC(=O)[C@@H](NCC(F)(F)F)C(C)C)c2c1`: 42.5 µM; for `C1=NCCN2CCN(CCN=Cc3ccc(cc3)OCc3cccc(n3)COc3ccc1cc3)CC2`: more than 50 µM; for `CCc1n[nH]c(=O)n1/N=C/c1c(O)ccc2ccccc12`: more than 100 µM.
As for `NC(N)=N/N=C/c1c(-c2ccc(Cl)cc2)nc2sccn12`, the TGI is 12 µM.

The subject of another experiment is OVCAR-3 ovarian. The experiment can be described thus: growth of human tumour cells (NCI), 48 h.
In the case of `O=C1/C(=C/c2cccc(Br)c2)CCc2ccccc21`, the TGI stood at 28.6 µM.
Same read-out and setting: the same measure for `CNc1ncnc2c1ncn2C1C=CC(COS(N)(=O)=O)C1` (stereo not given): more than 100 µM; for `CCOc1cc(NC(C)=O)ccc1C(=O)NN1C(=O)C(Cl)C1c1ccccc1` (stereo not given): 34.2 µM; for `COC1=C(OC)C(=O)C(Cc2c(Cl)nc3sc(C)cn23)=C(C)C1=O`: 26.1 µM.
Still for that read-out and setting: the same measure for `Cc1ccc(S(=O)(=O)n2cc(-c3cc(C(F)(F)F)ccn3)c3cc(Br)ccc32)cc1`: 30.7 µM; for `CCCCCCCCCCCCCCCCCCNc1ccn(C2OC(COP(=O)(O)OCC3OC(n4cc(F)c(=O)[nH]c4=O)CC3O)C(O)C2O)c(=O)n1` (stereo not given): more than 100 µM; for `O=C(CN1CCCCC1)Nc1ccc2sc3ccccc3c(=O)c2n1`: more than 100 µM.
On the same count and under the same terms, the same measure for `CC(C)=CCC/C(C)=C/CC/C(C)=C/CC/C(C)=C/C=C/C=C(\C)CC/C=C(\C)CC/C=C(\C)CCC=C(C)C`: more than 100 µM; for `CN(CCCCCl)P(=O)(OCc1ccc([N+](=O)[O-])o1)OC[C@H]1O[C@@H](n2cc(F)c(=O)[nH]c2=O)C[C@@H]1O` (stereo not given in full): 19.1 µM.
On to `CCOC(=O)P(=O)(O)c1ccc(N(C)Cc2ccccc2)cc1`, for which the TGI was more than 100 µM.
Same read-out and setting: the same measure for `C=C(C)C1=CCC[C@]2(C1)N=C(OC)[C@@H](C(C)C)N=C2OC`: more than 100 µM; for `Cc1cc2ccccc2n2c1nc1ccccc12`: more than 100 µM.
On the same count and under the same terms, the same measure for `CC(=O)C(=C(c1ccccc1)c1ccccc1)c1ccccc1`: more than 100 µM; for `CC1C2(C)OC(=N)C(C#N)(C(c3ccccc3)O2)C1(C#N)C#N` (stereo not given): 29.1 µM; for `[N-]=[N+]=Nc1ccccc1C(=O)N1C(=O)c2ccccc2C(=O)N(C(=O)c2ccccc2N=[N+]=[N-])c2ccccc21`: more than 100 µM.
Still for that read-out and setting: the same measure for `O=C1NC2ON=C(c3ccccc3)C2C2ON=C(c3ccccc3)N12` (stereo not given): more than 100 µM.
In turn, `CCCCCCCCCCCCCCCCCCNC(=O)C(N)Cc1ccc(OCc2ccccc2)cn1` (stereo not given) showed a TGI of 49.6 µM.
The same measure, in the same setting: the value for `Cc1ccc2c(c1)[nH]c(=S)n2/C=C1\C(=O)Oc2ccccc2C1=O` was more than 100 µM; that for `CC(C)Cn1cnc2c(NCC(C)O)nc3ccccc3c21` (stereo not given) was more than 100 µM.
Still for that read-out and setting: the same measure for `COC1(OC)c2no[n+]([O-])c2CCC1O` (stereo not given): more than 100 µM; for `OC1(c2cccs2)c2cccc(Cl)c2C(O)(c2cccs2)c2c(Cl)cccc21` (stereo not given): more than 100 µM.
For `CN(C)Nc1cc(=O)[nH]c(=O)[nH]1`, the TGI was more than 100 µM.
With `O=[N+]([O-])/C(C(Cl)=C(Cl)Cl)=C(\N1CCOCC1)n1nnc2ccccc21`, the TGI turned out to be 42.2 µM.
Compound `O=c1c2c(oc3ccccc13)-c1ccccc1OC2` registered a TGI of more than 100 µM.
The same measure, in the same setting: the same measure for `C=CCOc1cccc(C2(O)c3ccccc3C3=NCCCN32)c1` (stereo not given): 10.4 µM.
Still for that read-out and setting: the value for `O=C1CCCCC/C1=C\c1cccc(Cl)c1` was more than 100 µM.
With `COC(=O)C1(C(=O)OC)Cc2ccc(OC)cc2C2=C1C(=O)c1ccccc1C2=O`, the TGI came to 3.69 µM.
Compound `CCc1c2c([nH]c(=S)c1C#N)CCC2` displayed a TGI of more than 100 µM.
With `O=C1/C(=C/c2cccc(F)c2)CCCc2ccccc21`, the TGI was determined as 28.6 µM.
`C=CCN1C(=O)/C(=C/c2ccc(OC)cc2)N=C1SC/C=C/C` yielded a TGI of more than 100 µM.
